In the assay the test system is AOX1 promoter. Put plainly: Induction of the AOX1 promoter in recombinant P. pastoris cells carrying the azurin gene; western blot of culture broth with anti-azurin antibody. It is filed as cell-based, Pichia pastoris. From the text: FIG. 1B. Relative expression levels of azurin protein in culture broths
Recombinant yeast cells were obtained by performing steps A, B and C in the study in which the recombinant DNA obtained by Inserting the azurin gene of Pseudomonas aeruginosa into pPICZαA was integrated into the genome of P. pastoris X33 strain (https://pubmed.ncbi.nlm.nih.gov/33346686/).
In this Invention, recombinant Pichia pastoris cells which carry the “azurin protein” gene (as a reference gene) from Pseudomonas aeruginosa in their genomes and can perform the extracellular production of this protein were used.
Said protein gene is located in the downstream of the AOX1 promoter in the genome of P. pastoris cells. If the AOX promoter is induced, expression of this gene inserted into the genome can be achieved. […] Methanol or farnesol was added to the culture medium In predetermined amounts every 24 hours.
Background: In western blotting, separated proteins are transferred to a membrane and probed.

Structures are written as SMILES.

As for `CC(C)=CCCC(C)=CCCC(C)=CCO` [farnesol], under “240 farnesol group compared with 120 and 480 μL/L, 72 hours, FIG. 1B”, the “protein expression level among the farnesol groups” value was “highest protein expression level”. The “protein expression level relative to the 0.5% (v/v) methanol-induced group” value (240 farnesol group, P<0.05, FIG. 1B) is “higher than that of the 0.5% (v/v) methanol-induced group”. In addition, the “extracellular protein (azurin) production on induction of the promoter” value (farnesol 120 μL/L, 240 μL/L and 480 μL/L added every 24 hours, sorbitol as carbon source, 30° C., 280 rpm, 72 hours, FIG. 1A) was “protein production also occurred”.
Turning to `CO` [methanol], the “protein (azurin) production on induction of the promoter” value (methanol 0.5% v/v (control inducer) added every 24 hours, sorbitol as carbon source, 30° C., 280 rpm, 72 hours, FIG. 1A) is recorded as “protein production”.

The record behind these values is patent publication US20260125730A1, “A NEW INDUCER FOR METHANOL-FREE PICHIA PASTORIS EXPRESSION SYSTEM” (priority 2022, published 2026).
